According to patent US20070213278A1, “Arrays with cleavable linkers” (priority 2004, published 2007):
Marks after values point to notes of the source that are not given here.

Experiments:
chST6GalNAc-I = molecular target: T1, chST6GalNAc-I (Gallus gallus, UniProt Q92183); assay: chST6GalNAc-I activity on small acceptor molecules; type: biochemical, chicken; details: α-D-galacto derivatives as acceptors
T1 construct: made in house; host or cells: insect cells
Text: The inventors have previously reported the cloning, expression, and characterization of chicken ST6GalNAc-I and its use in preparative synthesis of the O-linked sialoside antigens, STn-, α(2-6)SiaT-, α(2-3)SiaT- and Di-SiaT-antigen. Blixt, O.; Allin, K.; Pereira, L.; Datta, A. and Paulson, J. C., J. Am. Chem. Soc. 2002, 124, 5739-5746. Briefly, the recombinant enzyme was expressed in insect cells and purified by CDP-sepharose affinity chromatography to generate approximately 10 U/L of cell culture.

2G12 anti-HIV antibody = assay: 2G12 binding to glycan array printed on glass slide; parameters: species or system human; details: for Rel. spec. (relative binding activity of 2G12): glycan array on glass slide, 2G12 pre-complexed with anti-IgG-FITC; for 2G12 binding on glycan array: initial experiments
Text: The natural high mannose type N-glycans used for the analysis were purified from pronase treated bovine ribonuclease B on Dionex. Each preparation was a single molecular weight species as determined by MALDI-MS.
Construction of a glycan array printed on a glass slide: The library of carbohydrate structures was obtained through chemical and chemo-enzymatic synthesis as described above, as well as natural sources. This compound library contained a N-hydroxy succinimide (NHS)-reactive primary amino group, which was printed on a commercial NHS-activated glass surface (Accelr8 Technology Corporation, Denver, Colo.) using a microarray gene printer (TSRI).
Each glycan type was printed (≈0.5 nL/spot) at various concentrations (10-100 μM) and each concentration in a replicate of six. Slides were further incubated with ethanolamine buffer to deactivate remaining NHS functional groups.
The 2G12 antibody was pre-complexed (for 10 min) with secondary human anti-IgG-FITC (2:1, 20 μg/mL) prior to application to the glycan array. After incubation with the 2G12 antibodies, the array washed by dipping the slide in buffer and water.

2G12 antibody [1] = assay: Carbohydrate microarray analysis, microtiter plate, oligomannose-2G12 dissociation constants (Example 11); type: binding, human; details: microtiter plate array
Procedure: Carbohydrate microarray analysis. Ninety-six well NHS-coated microtiter plates (NoAb Biodiscoveries) were treated with 200 μL of a 1 mM methanolic solution of the amino-functionalized disulfide and alkyne containing linker (scheme V) containing 5% diisopropylethylamine (DIEA) and incubated overnight at 4° C. The microtiter plate was then washed with 2×200 μL methanol and 2×200 μL water. Next, 200 μL solutions of azido-functionalized oligomannose derivatives 21-25 at varying concentrations from 0 to 500 μM in 5% DIEA/methanol were introduced. A sprinkle of copper (I) iodide was added and the contents were allowed to react overnight at 4° C. The next day, the contents were removed and the plates were washed with 2×200 μL methanol and 2×200 μL water. The plates were then blocked with 0.1% Tween20 solution in HEPES buffer pH 7.5 at 4° C. for 1 hour and then washed with 3×200 μL HEPES buffer. […] Detection of the FITC-tagged secondary antibody was performed in 200 μL water using a fluorescence plate reader. […]
Carbohydrate Microarray Analysis. […] Kd values for the interaction of 2G12 with oligomannoses 4, 5, 7, 8, 9 (Table 9) were determined using a microtiter-based assay with detection via a fluorescent secondary antibody (see Bryan et al.(2004) J. Am. Chem. Soc. 126, 8640-41).

2G12 antibody [2] = assay: 2G12 binding, cleavable linker glycan array in microtiter plates (Example 10); parameters: species or system human; details: for 2G12 epitope / affinity: cleavable linker array
Procedure: Cleavable Linker Glycan Array in Microtiter Plates: Further experiments were performed using glycans immobilized within microtiter wells with the cleavable triazole linkers described in Example 7 as shown in FIG. 11.
2G12 Binding: After washing with QH2O, wells were blocked with 10 mM HEPES buffer, pH 7.5/150 mM NaCl buffer (200 μL) containing 0.1% Tween-20 over 1 h at 4° C. The buffer was then removed and 2G12 (17 μg/mL PBS buffer; 200 μL) was incubated in the well over 1 h at 4° C. Wells were then washed with PBS buffer (3×; 200 μL) and fluorescein-conjugated Goat Anti-Human IgG antibody (14 μg/mL PBS buffer; 200 μL) was incubated in the well over 1 h in the dark at 4° C. Wells were then washed with PBS buffer (3×; 200 μL) and fluorescence was measured with an excitation wavelength of 485 nm and emission wavelength of 535 nm.
Further studies were performed using a cleavable linker array to clarify the types of mannose-containing glycans bound by the 2G12 anti-HIV antibodies. […] The results of a binding study using increasing amounts of labeled Manα1,2Manα1,3Manα1,2 Manα1,6Man glycan with a constant amount of 2G12 antibody are shown in FIG. 16.

[3] = tested on: 2G12 binding to gp120JR-CSF; assay: Solution phase ELISA, oligomannose inhibition of 2G12 binding to gp120; parameters: species or system human; details: oligomannose at 0.5 mM
Procedure: Enzyme-linked immunosorbent assay. Microtiter plate wells (flat bottom, Costar type 3690; Corning Inc.) were coated with 50 ng/well gp120JR-CSF overnight at 4° C. All subsequent steps were performed at room temperature. The wells were then washed four times with PBS/0.05% (vol/vol) Tween20 (Sigma) using a microplate washer (SkanWash 400, Molecular Devices) prior to blocking for 1 hr with 3% (mass/vol) BSA. IgG 2G12, diluted to 0.5 μg/mL (25 ng/well) with 1% (mass/vol) BSA/0.02% (vol/vol) Tween20/PBS (PBS-BT), was then added for 2 hrs to the antigen-coated wells in the presence of serially-diluted oligomannoses starting at 2 mM.
Unbound antibody was removed by washing four times, as described above. Bound 2G12 was detected with an alkaline phosphatase-conjugated goat anti-human IgG F(ab′)2 antibody (Pierce) diluted 1:1000 in PBS-BT. After 1 hr, the wells were washed four times and bound antibody was visualized with p-nitrophenol phosphate substrate (Sigma) and monitored at 405 nm.
Solution Phase ELISA Assay Analysis of Oligomannose 1-8 Inhibition of 2G12 Binding. Man9GlcNAc2 1 and deprotected oligomannoses 2-6 and 7-9 (see FIG. 17) were evaluated for their ability to inhibit the interaction between 2G12 and gp120 in a solution phase enzyme-linked immunosorbent assay (ELISA). […]

T1 sequence (Q92183 whole entry): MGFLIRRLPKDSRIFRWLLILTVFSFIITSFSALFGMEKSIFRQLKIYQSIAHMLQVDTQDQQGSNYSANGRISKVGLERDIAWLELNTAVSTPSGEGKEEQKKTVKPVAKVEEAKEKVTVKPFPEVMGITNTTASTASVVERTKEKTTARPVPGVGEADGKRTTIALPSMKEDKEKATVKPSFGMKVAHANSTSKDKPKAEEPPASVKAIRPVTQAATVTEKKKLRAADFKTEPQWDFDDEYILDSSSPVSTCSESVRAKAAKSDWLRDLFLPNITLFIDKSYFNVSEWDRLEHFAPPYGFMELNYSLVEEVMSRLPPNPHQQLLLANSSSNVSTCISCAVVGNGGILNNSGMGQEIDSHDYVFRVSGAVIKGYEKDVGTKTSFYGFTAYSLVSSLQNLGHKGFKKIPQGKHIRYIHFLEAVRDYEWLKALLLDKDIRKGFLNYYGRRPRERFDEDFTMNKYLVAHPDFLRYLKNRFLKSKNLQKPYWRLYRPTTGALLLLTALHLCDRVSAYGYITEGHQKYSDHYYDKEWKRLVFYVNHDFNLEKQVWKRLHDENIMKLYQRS

OCC1O[C@@H](O)C(O)[C@@H](O)[C@@H]1O[C@@H]1OC(CO)[C@H](O)[C@H](O)C1O (some centres unmarked) [Compound 4]
chST6GalNAc-I activity, cpm (chST6GalNAc-I): 3043 cpm | chST6GalNAc-I activity, nmol/mg × min^−1 (chST6GalNAc-I): 2.90 nmol/mg × min^−1 | Rel. spec. (relative binding activity of 2G12) (2G12 anti-HIV antibody): − (− = <1000)

O=[N+]([O-])c1ccc(O[C@@H]2OC(CO)[C@@H](O[C@@H]3OC(CO)[C@H](O)[C@H](O)C3O)[C@H](O)C2O)cc1 (some centres unmarked) [Compound 5]
chST6GalNAc-I activity, cpm (chST6GalNAc-I): 1421 cpm | chST6GalNAc-I activity, nmol/mg × min^−1 (chST6GalNAc-I): 1.30 nmol/mg × min^−1 | Rel. spec. (relative binding activity of 2G12) (2G12 anti-HIV antibody): − (− = <1000)

CC(=O)N[C@H]1C(O)O[C@H](CO)[C@@H](O[C@@H]2O[C@H](CO)[C@H](O)[C@H](O)[C@H]2O)[C@@H]1O (some centres unmarked) [Compound 6]
chST6GalNAc-I activity, cpm (chST6GalNAc-I): 13277 cpm | chST6GalNAc-I activity, nmol/mg × min^−1 (chST6GalNAc-I): 12.50* nmol/mg × min^−1 | Rel. spec. (relative binding activity of 2G12) (2G12 anti-HIV antibody): − (− = <1000)

CC(=O)N[C@H]1C(O)O[C@H](CO)[C@H](O)[C@@H]1O (stereo partly drawn) [D-GalNAc, reference compound]
chST6GalNAc-I activity, nmol/mg × min^−1 (chST6GalNAc-I): 0.00 nmol/mg × min^−1

NCCCCCO[C@H]1O[C@H](CO[C@H]2O[C@H](CO)[C@@H](O)[C@H](O)[C@@H]2O[C@H]2O[C@H](CO)[C@@H](O)[C@H](O)[C@@H]2O)[C@@H](O)[C@H](O[C@H]2O[C@H](CO)[C@@H](O)[C@H](O)[C@@H]2O[C@H]2O[C@H](CO)[C@@H](O)[C@H](O)[C@@H]2O)[C@@H]1O [Oligomannose 5]
2G12 binding affinity (2G12 antibody [1]): greatest affinity

Man-8#aa Man8-aminoacid [Glycan 144]
2G12 binding on glycan array (2G12 anti-HIV antibody): Binding was observed

Man-9#aa Man9-aminoacid [Glycan 145]
2G12 binding on glycan array (2G12 anti-HIV antibody): smaller level of binding

Manα1,2 Manα1,2Manα1,3Man
Kd (2G12 antibody [2]; binding to 2G12, cleavable linker array): 100 nM | 2G12 epitope / affinity (2G12 antibody [2]): optimal epitope(s) with micromolar affinity to 2G12

Manα1,2Manα1,3Manα1,2 Manα1,6Man
2G12 epitope / affinity (2G12 antibody [2]): optimal epitope(s) with micromolar affinity to 2G12

Oligomannose 3
inhibition (%) of 2G12 binding to gp120 [3]: 15.8%
